Here are results for 17 molecules from PubChem BioAssay (NCI).

Assay in all cases: NCI-60 cell line screen, 48 h
In experiment [1] the test system is DMS 114 small cell lung.
Experiment [2] relates to ACHN renal.
In experiment [3] the test system is HOP-62 NSCLC.
The subject of experiment [4] is M14 melanoma.
The subject of experiment [5] is SN12C renal.
Experiment [6] has as its system MALME-3M melanoma.
Experiment [7] has as its system SK-MEL-28 melanoma.
The subject of experiment [8] is SNB-78 CNS.
For experiment [9], the system named is RPMI-8226 leukemia.
For experiment [10], the system named is DMS 273 small cell lung.
For experiment [11], the system named is T-47D breast.

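All cell lines were grown in 96-well plates and treated with compound for 48 hours. Abbreviation: GI50, concentration required for 50% inhibition of growth. TGI is the concentration that stops growth completely.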

On to `CC1=N/C(=C\c2ccc([N+](=O)[O-])cc2)C(=O)O1`, for which the TGI in experiment [1], in [2], in [3], in experiment [4], in [5] and in experiment [6] was over 100 µM each time. Further, the TGI in experiment [7], in experiment [8] and in experiment [9] was over 100 µM each time.

For the molecule `CC(C)(C)C(=O)OCC(COC(=O)C(C)(C)C)[N+](=O)[O-]`, the TGI in experiment [1], in experiment [2], in experiment [10], in experiment [4], in experiment [5] and in [6] was over 100 µM in each case. For the same molecule, the TGI in [7] and in experiment [9] was over 100 µM in each case.

For the molecule `CCOC(=O)C1(C(=O)OCC)CC=C(C)CC12C(=O)Nc1ccccc12` (stereo not drawn), the TGI in experiment [1], in experiment [2], in [10], in experiment [3], in experiment [4] and in experiment [5] was over 100 µM each time. For the same molecule, the TGI in experiment [6], in experiment [7] and in experiment [9] was over 100 µM in each case.

In the case of `N#Cc1nc(Nc2ccc([N+](=O)[O-])cc2)sc1N`, the TGI is 50.9 µM in experiment [2]; over 100 µM in [10]; 75.8 µM in [3]; 66.8 µM in experiment [4]; over 74.6 µM in [5]; over 91.4 µM in experiment [6]. In addition, the TGI in [7] was over 74.3 µM; in [8], over 93 µM; in experiment [9] it was over 59.2 µM.

Consider `COC(=O)C(=O)C(C#N)c1ccc(Cl)c(Cl)c1` (stereo not drawn), for which the TGI in experiment [2], in experiment [10], in experiment [4], in experiment [5], in experiment [6] and in experiment [7] was over 100 µM throughout. The TGI in [8] and in [9] was over 100 µM throughout.

On to `O=C(O/N=C1/CCCC/C1=C\c1ccccc1)c1ccc(Cl)cc1`, for which the TGI in experiment [2], in experiment [10], in [3], in [4], in experiment [5] and in [6] was over 100 µM in each case. Moreover, the TGI in experiment [7], in experiment [8] and in experiment [9] was over 100 µM each time.

As for `COc1ccc(CCC2NCCc3cc(OC)c(OC)cc32)cc1` (stereo not drawn), the TGI in experiment [2], in experiment [3], in experiment [4], in experiment [5], in [6] and in experiment [7] was over 100 µM in each case. Besides, the TGI in [8] and in experiment [9] was over 100 µM each time.

On to `Cc1ccc(-n2c(-c3ccc(Cl)cc3)cs/c2=N\NC(=O)COc2n[nH]c(=O)c3ccccc23)cc1`, for which the GI50 was over 100 µM in experiment [2]; 51.8 µM in experiment [3]; over 100 µM in experiment [4]; 78.1 µM in experiment [5]; 31.9 µM in experiment [6]; over 100 µM in experiment [7]. The GI50 in experiment [11] and in experiment [9] was over 100 µM in each case. The TGI in [2], in experiment [3], in experiment [4], in [5], in [6] and in experiment [7] was over 100 µM throughout. The TGI in [11] and in experiment [9] was over 100 µM in each case.

Turning to `C=C1CO[C@@H]2C[C@@H]1CCC1(C)OC1CC/C(C)=C/CC[C@@]2(C)O` (stereo partly drawn), the GI50 in experiment [2] is 16.7 µM; in experiment [3], over 58.2 µM; in experiment [4] it was 44.1 µM; in experiment [5], 25.6 µM; in experiment [6] it was 48.8 µM; in experiment [7] it was over 89.6 µM. The GI50 in experiment [11] was 26.7 µM; in experiment [9], 16.2 µM. Further, the TGI in experiment [2] is 31.4 µM; in experiment [3], over 100 µM; in [4] it was over 100 µM; in experiment [5], 67.8 µM; in [6] it was over 100 µM; in experiment [7] it was over 100 µM. Besides, the TGI is over 69.2 µM in [11] and 44.5 µM in experiment [9].

For the molecule `COc1ccc(-c2c(C#N)c(N)nc3c2CCCc2ccc(F)cc2-3)cc1OC`, the TGI in experiment [2] is 19.4 µM; in [3], 29.7 µM; in experiment [4] it was 0.402 µM; in experiment [5], 4.75 µM; in experiment [7] it was over 38 µM; in [11] it was over 100 µM. Also, the TGI in [9] turned out to be 1.61 µM. Moreover, the GI50 was 0.131 µM in experiment [3]; 0.0758 µM in experiment [4]; under 0.0499 µM in experiment [5]; under 0.01 µM in experiment [6]; 1.03 µM in experiment [7]; 22.3 µM in experiment [11]. The GI50 in [9] was under 0.01 µM.

In the case of `CC(C)(CCC(C)(C)c1ccccc1)c1ccccc1`, the TGI in experiment [2] amounted to 31.7 µM; in [3], 35.4 µM; in experiment [4], 52.7 µM; in [5] it was 32.7 µM; in experiment [6], 30 µM; in experiment [7], 42.7 µM. For the same molecule, the TGI came to 36.6 µM in experiment [11] and 36.1 µM in experiment [9].

On to `CC1(C)CC[C@]2(C(=O)O)CC[C@]3(C)[C@H](CC[C@@H]4[C@@]5(C)CCC(=O)C(C)(C)[C@@H]5CC[C@]43C)[C@H]2[C@H]1OC(=O)C(F)(F)F`, for which the GI50 was 13.3 µM in [2]; 13.2 µM in [3]; 8.34 µM in [4]; 11.5 µM in experiment [5]; 12.9 µM in experiment [6]; 13.6 µM in [7]. For the same molecule, the GI50 in experiment [11] was 3.84 µM; in [9], 4.82 µM. For the same molecule, the TGI was determined as 26.1 µM in experiment [2]; 27.8 µM in experiment [3]; 27 µM in [4]; 24.8 µM in [5]; 30.7 µM in [6]; 28.2 µM in [7]. The values for the TGI in experiment [11] and in experiment [9] were 23.9 µM and 30.9 µM, respectively.

`Cc1ccccc1NC(=O)c1sc2nc3c(cc2c1N)C(=O)CCC3`: the GI50 in experiment [2] is 15.8 µM; in [3] it was 7.28 µM; in experiment [4] it was 2.27 µM; in experiment [5] it was 5.53 µM; in experiment [6], 3.54 µM; in experiment [7] it was 1.83 µM. Also, the GI50 in [11] was 4.81 µM; in experiment [9], 5.29 µM. In addition, the TGI in [2], in experiment [3], in [4], in experiment [5], in [6] and in experiment [7] was over 100 µM each time. The TGI in experiment [11] and in experiment [9] was over 100 µM in each case.

With `CC1=N/C(=C\c2cccc3ccccc23)C(=O)O1`, the TGI in experiment [1], in experiment [2], in [3], in experiment [4], in experiment [5] and in experiment [6] was over 100 µM throughout. Besides, the TGI in [7], in [8] and in [9] was over 100 µM in each case.

Take `CCCCc1nc2cc(/C=C/C(=O)NO)ccc2n1CCN(CC)CC`: the GI50 in experiment [2] is 0.285 µM; in experiment [3], 0.322 µM; in experiment [4], 0.358 µM; in [5] it was 0.489 µM; in experiment [6], 0.153 µM; in [7], 0.254 µM. Also, the GI50 in experiment [11] was 0.136 µM; in experiment [9], 0.176 µM. Besides, the TGI in [2] was determined as 1.44 µM; in experiment [3], 11.6 µM; in experiment [4] it was 5.32 µM; in experiment [5], 30.1 µM; in experiment [6], 22.2 µM; in experiment [7] it was 1.58 µM. Further, the TGI in experiment [11] is over 47.4 µM; in experiment [9] it was over 100 µM.

As to `COC(=O)[C@]12CC[C@@H](C)[C@H](C)[C@@H]1C1=CC[C@@H]3[C@@]4(C)C=C(O)C(=O)C(C)=C4CC[C@@]3(C)[C@]1(C)CC2`, the GI50 in experiment [2] is 5.4 µM; in [3], 18 µM; in experiment [4], 11 µM; in experiment [5] it was 19.2 µM; in experiment [6], 22.4 µM; in experiment [7], 15.8 µM. The GI50 was 5.86 µM in experiment [11] and 8.62 µM in experiment [9]. For the same molecule, the TGI in experiment [2] stood at 19.3 µM; in experiment [3], 35.9 µM; in [4], 29 µM; in [5], 50.4 µM; in experiment [6] it was 42.8 µM; in [7] it was 34 µM. Moreover, the TGI in experiment [11] was 30.8 µM; in [9], 32.8 µM.

In the case of `CN1CCN(c2cc(Nc3cc(C4CC4)[nH]n3)nc(Nc3ccc(CC(=O)NCc4cccc(F)c4)cc3)n2)CC1`, the GI50 is 2.01 µM in experiment [2]; 0.754 µM in experiment [3]; 0.752 µM in experiment [4]; 0.756 µM in experiment [5]; 0.496 µM in experiment [6]; 0.971 µM in experiment [7]. Also, the GI50 in experiment [11] was 2.27 µM; in experiment [9], 2 µM. Also, the TGI is 10.6 µM in experiment [2]; 14.4 µM in experiment [3]; 2.41 µM in experiment [4]; 14.4 µM in experiment [5]; 4.55 µM in experiment [6]; 2.46 µM in experiment [7]. Also, the TGI in experiment [11] amounted to 13.8 µM; in experiment [9], 6.52 µM.
